Measurements as given in patent US12338253B2, “Nitrogen-containing polycyclic fused ring compound, pharmaceutical composition thereof, preparation method therefor and use thereof” (APPLIED PHARMACEUTICAL SCIENCE, INC., priority 2019, dated 2025).

Legend:
RET wt = RET wt (Homo sapiens (Human), UniProt P07949); assay: HTRF kinase activity test, RET wt; assay type: biochemical; conditions: for IC50: HTRF KinEASE-TK; for inhibitory activity on RET wt compared with cabozantinib: comparison in words
RET V804M = RET V804M (Homo sapiens (Human), UniProt P07949, V804M); assay: HTRF kinase activity test, RET V804M; assay type: biochemical; conditions: for IC50: HTRF KinEASE-TK; for inhibitory activity on RET V804M compared with cabozantinib: comparison in words
RET G810R = RET G810R (Homo sapiens (Human), UniProt P07949, G810R); assay: HTRF kinase activity test, RET G810R; assay type: biochemical; conditions: for IC50: HTRF KinEASE-TK; for inhibitory activity on RET G810R compared with cabozantinib and selpercatinib (LOXO-292): comparison in words
TT Cell = assay: TT cell activity test (CelltiterGlo, 72 h); assay type: cell-based, human; conditions: for IC50: Homo sapiens, TT cell line, 72 h, CTG; for inhibitory activity on TT cells compared with cabozantinib: comparison in words
[1] = tested on: TT cell human medullary thyroid carcinoma xenograft model; assay: Pharmacodynamic test on TT cell human medullary thyroid carcinoma xenograft model; assay type: in vivo, mice; conditions: 10 mg/kg, oral, twice a day, 28 consecutive days
Experimental: TT tumor cells were cultured in F12K medium containing inactivated 10% fetal bovine serum, 100 U/mL penicillin, 100 μg/mL streptomycin and 2 mM glutamine in an incubator at 37° C. and 5% CO2. The cells were cultured at a starting concentration of 1×10^6 cells/mL, and divided and transferred to flasks for sub-culture every 3 to 4 days when they were overgrown. The tumor cells in the logarithmic growth phase were used for tumor inoculation in vivo.
The TT tumor cells resuspended in serum-free F12K medium at a concentration of 1×10^7 cells+gel/100 μL were inoculated subcutaneously into the right flank of experimental animals. When the tumor grew to about 224 mm^3, the compounds were administered in groups, with 6 animals in each group.
The mice were orally administered with the test compound twice a day for 28 consecutive days.
Tumor volume: the long and short diameters of the tumor were measured using a vernier caliper. The volume was calculated by the formula: volume=0.5×long diameter×short diameter^2. Animals were required to have their body weight and tumor size measured twice a week during the administration.
Reaction of animals after the administration: the experimental animals were weighed while measuring the tumors. The relationship between the change in the animal weight and the time of administration was recorded. At the same time, the survival and health of the mice, such as animal activity, feeding and other general states during the administration were observed.
Relative tumor proliferation rate T/C (%)=TRTV/CRTV×100% (TRTV: treatment group RTV; CRTV: negative control group RTV), where the relative tumor volume (RTV) is calculated as: RTV=Vt/V0, where V0 is the tumor volume measured at the time of group administration (that is, day 1 of the administration), and Vt is the tumor volume at each measurement. Tumor growth inhibition rate TGI (%)=(1−T/C)×100%.

[2] = tested on: Ba/F3 cell KIF5B-RET-V804M fusion xenograft model; assay: Pharmacodynamic test on Ba/F3 cell KIF5B-RET-V804M fusion xenograft model; assay type: in vivo, BALB/c nude mice; conditions: 10 mg/kg; for Tumor growth inhibition rate: oral, twice a day, end of the control experiment (day 8 of the administration); for tumor volume compared with the selpercatinib group: p<0.05
[3] = end of the experiment (day 14 of the administration)

Sequence of RET wt (P07949 29-1114): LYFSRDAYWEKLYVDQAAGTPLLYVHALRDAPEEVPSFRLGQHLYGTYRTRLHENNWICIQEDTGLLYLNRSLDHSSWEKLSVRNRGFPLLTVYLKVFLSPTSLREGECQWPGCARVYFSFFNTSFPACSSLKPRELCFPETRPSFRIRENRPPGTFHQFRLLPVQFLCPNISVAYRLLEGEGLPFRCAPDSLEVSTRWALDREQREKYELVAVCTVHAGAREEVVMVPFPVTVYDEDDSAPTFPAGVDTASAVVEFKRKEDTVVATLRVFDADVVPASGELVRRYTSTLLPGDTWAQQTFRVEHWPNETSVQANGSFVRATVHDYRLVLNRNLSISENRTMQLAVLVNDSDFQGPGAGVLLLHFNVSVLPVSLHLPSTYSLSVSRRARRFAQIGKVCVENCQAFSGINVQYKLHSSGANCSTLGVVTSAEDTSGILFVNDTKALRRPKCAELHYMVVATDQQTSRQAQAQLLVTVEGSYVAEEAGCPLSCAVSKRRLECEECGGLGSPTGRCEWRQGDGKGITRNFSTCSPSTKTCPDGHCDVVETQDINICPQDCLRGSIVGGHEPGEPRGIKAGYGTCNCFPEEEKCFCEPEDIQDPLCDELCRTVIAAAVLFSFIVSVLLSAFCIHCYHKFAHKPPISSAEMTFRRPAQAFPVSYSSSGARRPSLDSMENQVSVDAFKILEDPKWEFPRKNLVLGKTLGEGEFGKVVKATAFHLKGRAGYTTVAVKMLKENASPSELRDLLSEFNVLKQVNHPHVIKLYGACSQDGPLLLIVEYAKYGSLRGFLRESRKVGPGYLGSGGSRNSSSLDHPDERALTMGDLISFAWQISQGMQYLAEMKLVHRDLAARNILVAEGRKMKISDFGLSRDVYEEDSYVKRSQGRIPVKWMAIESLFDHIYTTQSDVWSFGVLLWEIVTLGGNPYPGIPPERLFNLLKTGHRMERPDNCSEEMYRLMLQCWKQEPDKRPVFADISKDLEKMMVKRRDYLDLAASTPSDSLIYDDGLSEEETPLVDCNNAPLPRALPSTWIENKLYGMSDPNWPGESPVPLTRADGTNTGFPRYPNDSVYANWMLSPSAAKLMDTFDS
Sequence of RET V804M (P07949 29-1114 V804M): as the sequence (P07949 29-1114) above, with V776M counted along it
Sequence of RET G810R (P07949 29-1114 G810R): as the sequence (P07949 29-1114) above, with G782R counted along it

| Structure (SMILES) | IC50 (RET wt) [nM] | inhibitory activity on RET wt compared with cabozantinib (RET wt) | IC50 (RET V804M) [nM] | inhibitory activity on RET V804M compared with cabozantinib (RET V804M) | IC50 (RET G810R) [nM] | inhibitory activity on RET G810R compared with cabozantinib and selpercatinib (LOXO-292) (RET G810R) | IC50 (TT Cell) [nM] | inhibitory activity on TT cells compared with cabozantinib (TT Cell) | Tumor growth inhibition rate TGI [1] [%] | Tumor growth inhibition rate [2] [%] | tumor volume compared with the selpercatinib group ([2]; day 8 of the administration) | tumor volume compared with the selpercatinib group [2, 3] |
| --- | --- | --- | --- | --- | --- | --- | --- | --- | --- | --- | --- | --- |
| COc1ccc(CN2C3CC2CN(c2ccc(-c4cc(OCCF)cn5nc6[nH]ncc6c45)cn2)C3)cn1 [Compound 31, 6-(2-fluoroethoxy)-4-(6-(6-((6-methoxypyridin-3-yl)methyl)-3,6-diazabicyclo[3.3.1]heptan-3-yl)pyridin-3-yl)-1H-pyrazolo[3′,4′:3,4]pyrazolo[1,5-a]pyridine] | 0.1 | significantly better than that of cabozantinib | 0.1 | significantly better than that of cabozantinib | 1 | significantly better than that of cabozantinib and selpercatinib (LOXO-292) | 12.7 | significantly better than that of cabozantinib | 87.4 | 92 | significantly lower than that of the selpercatinib group | significantly lower than that of the selpercatinib group |
| COc1ccc(CN2C3CC2CN(c2ccc(-c4cc(OCC(F)F)cn5nc6[nH]ncc6c45)cn2)C3)cn1 [Compound 32, 6-(2,2-difluoroethoxy)-4-(6-(6-((6-methoxypyridin-3-yl)methyl)-3,6-diazabicyclo[3.3.1]heptan-3-yl)pyridin-3-yl)-1H-pyrazolo[3′,4′:3,4]pyrazolo[1,5-a]pyridine] | 0.1 | significantly better than that of cabozantinib | 0.1 | significantly better than that of cabozantinib | 2.3 | significantly better than that of cabozantinib and selpercatinib (LOXO-292) | 6.5 | significantly better than that of cabozantinib | 86.9 | 96 | significantly lower than that of the selpercatinib group | significantly lower than that of the selpercatinib group |
